This is an account of results in the Biogen ADME set (Fang et al. 2023).

For the data set the following is noted: for aqueous solubility: pH 6.8.

In brackets after ≈: the same amount, converted by molar mass.

In the case of `Cc1ccc2[nH]c(CNC(=O)c3ncoc3C)nc2c1C`, the MDR1-MDCK efflux ratio worked out at 2.39; the intrinsic clearance, human liver microsomes amounted to 13.6 mL/min/kg; the intrinsic clearance, rat liver microsomes worked out at 244 mL/min/kg.
In general, aqueous solubility refers to the dissolved amount per volume that the medium holds. Higher therefore signals a readily soluble substance. On to `CN1CCN(Cc2noc(Cc3ccccc3)n2)c2ccccc21`, for which the MDR1-MDCK efflux ratio was determined as 0.641; the intrinsic clearance, human liver microsomes turned out to be 341 mL/min/kg; the intrinsic clearance, rat liver microsomes amounted to 2000 mL/min/kg; the aqueous solubility was determined as 14.1 µg/mL (≈ 44 µM).
The corresponding values for `Cc1ccnc(C2CCN(C3CCCC3)CC2)n1` are 1.12, at most 4.74 mL/min/kg, 848 mL/min/kg and 16.1 µg/mL (≈ 65.5 µM).
Regarding `COc1ccc(OCc2nn3c(-c4ccc(OC)cc4)nnc3s2)cc1`, the MDR1-MDCK efflux ratio worked out at 0.536 and the aqueous solubility is 0.2 µg/mL (≈ 0.543 µM).
For `CC(C)c1noc(CNC(=O)N2C[C@H]3C[C@@H](C2)c2cccc(=O)n2C3)n1`, the MDR1-MDCK efflux ratio turned out to be 3.14; the intrinsic clearance, human liver microsomes turned out to be 7.35 mL/min/kg; the intrinsic clearance, rat liver microsomes worked out at 73.7 mL/min/kg.
`COc1ccc(COc2ccc(Cc3cnc(N)nc3N)cc2OC)cc1`: the MDR1-MDCK efflux ratio turned out to be 11; the intrinsic clearance, human liver microsomes stood at 13.3 mL/min/kg; the intrinsic clearance, rat liver microsomes was determined as 249 mL/min/kg.
`Cc1noc(C)c1COc1ccc2ncccc2c1` displayed an intrinsic clearance, human liver microsomes of 86.8 mL/min/kg and an intrinsic clearance, rat liver microsomes of 337 mL/min/kg.
Consider `COc1cccc(C2NC(=O)NC(C)=C2C(=O)OCc2ccc3c(c2)OCO3)c1` (stereo not given), for which the aqueous solubility stood at 18 µg/mL (≈ 45.5 µM).
`Cc1ccc(C(=O)Nc2ncccc2C)s1`: the MDR1-MDCK efflux ratio is 0.664; the intrinsic clearance, human liver microsomes came to 6.72 mL/min/kg; the intrinsic clearance, rat liver microsomes was 34.6 mL/min/kg; the aqueous solubility turned out to be 37.8 µg/mL (≈ 163 µM).
For the molecule `COC(=O)[C@@H]1Cc2ncn(Cc3ccccc3)c2CN1C(C)=O`, the MDR1-MDCK efflux ratio turned out to be 17.6; the intrinsic clearance, human liver microsomes turned out to be 6.26 mL/min/kg; the intrinsic clearance, rat liver microsomes was 97.3 mL/min/kg; the aqueous solubility came out at 32.2 µg/mL (≈ 103 µM).
As for `N#Cc1cnc2cc(F)cc(F)c2c1NC1CCN(CC(N)=O)CC1`, the MDR1-MDCK efflux ratio stood at 15; the intrinsic clearance, human liver microsomes is at most 4.74 mL/min/kg; the intrinsic clearance, rat liver microsomes came to 27.4 mL/min/kg.
In turn, `C=CCc1ccccc1OCC(O)CNC(C)C` (stereo not given) displayed a fraction unbound, rat plasma of 0.313.
Molecule `CN1CC(=O)N(CCOc2ccccc2)C1=O` registered an aqueous solubility of 23.1 µg/mL (≈ 98.4 µM).
For `CC(=O)NCCCC(=O)Nc1ccc(Oc2ccccc2Cl)cc1`, the MDR1-MDCK efflux ratio came to 8.25; the intrinsic clearance, human liver microsomes was found to be 9.61 mL/min/kg; the intrinsic clearance, rat liver microsomes came out at 722 mL/min/kg.
The corresponding values for `O=C(Nc1cncc(Cl)c1Cl)c1cccc(-n2cccn2)n1` are 0.09, 99 mL/min/kg and 149 mL/min/kg.
`CC1(C)CC[C@]2(C(=O)O)CC[C@]3(C)C(C(=O)C=C4[C@@]5(C)C=C(C#N)C(=O)C(C)(C)[C@@H]5CC[C@]43C)C2C1` (stereo not given in full) showed an aqueous solubility of 63.5 µg/mL (≈ 129 µM).
For `CNC(=O)Cc1noc(-c2ccc3ncccc3c2)n1`, the intrinsic clearance, human liver microsomes is at most 4.74 mL/min/kg and the intrinsic clearance, rat liver microsomes worked out at 21.8 mL/min/kg.
On to `CN(C)C1(CNC(=O)Cn2ccc(=O)cc2)CCCCC1`, for which the MDR1-MDCK efflux ratio was 0.273; the intrinsic clearance, human liver microsomes turned out to be 5.3 mL/min/kg; the intrinsic clearance, rat liver microsomes stood at 16.1 mL/min/kg.
`Cc1ncc(C(=O)Nc2ncnc3oc(C)c(C)c23)s1`: the MDR1-MDCK efflux ratio was found to be 0.422; the intrinsic clearance, human liver microsomes stood at 26.3 mL/min/kg; the intrinsic clearance, rat liver microsomes turned out to be 160 mL/min/kg; the aqueous solubility was determined as 53.2 µg/mL (≈ 185 µM).
Take `Cc1cc(NC(=O)N2Cc3cc4c(cc3C3(CCCC3)C2)OCCO4)no1`: the MDR1-MDCK efflux ratio was 0.72 and the aqueous solubility stood at 0.3 µg/mL (≈ 0.812 µM).
On to `CS(=O)(=O)CCN1CCC(n2c(=O)[nH]c3ccccc32)CC1`, for which the intrinsic clearance, human liver microsomes was at most 4.74 mL/min/kg; the intrinsic clearance, rat liver microsomes was at most 10.7 mL/min/kg; the aqueous solubility turned out to be 62.9 µg/mL (≈ 194 µM).
As for `O=C(CC[C@@H]1CCCN2CCCC[C@H]12)NCc1cnc2c(c1)CCC2`, the MDR1-MDCK efflux ratio worked out at 26.7; the intrinsic clearance, human liver microsomes was at most 4.74 mL/min/kg; the intrinsic clearance, rat liver microsomes is 286 mL/min/kg.
On to `N#CC1(NC(=O)CN2CCOCC2)CCCCCC1`, for which the MDR1-MDCK efflux ratio is 2.14; the intrinsic clearance, human liver microsomes was at most 4.74 mL/min/kg; the intrinsic clearance, rat liver microsomes was determined as 65.6 mL/min/kg; the aqueous solubility was found to be 45.1 µg/mL (≈ 170 µM).
On to `N#Cc1ccc(OC2CCNCC2)cc1`, for which the intrinsic clearance, human liver microsomes is at most 4.74 mL/min/kg and the intrinsic clearance, rat liver microsomes is at most 10.7 mL/min/kg.
As for `CCOc1ccc(S(=O)(=O)N(CC)CC(=O)Nc2ccc3c(c2)OCO3)cc1`, the MDR1-MDCK efflux ratio was determined as 0.853 and the aqueous solubility amounted to 0.44 µg/mL (≈ 1.08 µM).
As for `Cc1ccn(-c2ccc(NCC3CC3)nn2)n1`, the intrinsic clearance, human liver microsomes is 11 mL/min/kg and the intrinsic clearance, rat liver microsomes was 305 mL/min/kg.
`CC(C)(C)CCCNC(=O)N1CCN(Cc2ccon2)CC1`: the MDR1-MDCK efflux ratio is 1.5; the intrinsic clearance, human liver microsomes came out at 17.1 mL/min/kg; the intrinsic clearance, rat liver microsomes is 623 mL/min/kg.
As for `Cc1ccc(C(=O)C2CCN(CC(=O)NC(=O)Nc3ccccc3)CC2)c(C)c1`, the MDR1-MDCK efflux ratio was 0.559; the intrinsic clearance, human liver microsomes amounted to 64.3 mL/min/kg; the intrinsic clearance, rat liver microsomes was 936 mL/min/kg.
In the case of `CCc1cc2c(cc1N1CCC(N3CCOCC3)CC1)C(C)(C)c1[nH]c3cc(C#N)ccc3c1C2=O`, the MDR1-MDCK efflux ratio amounted to 11.8; the intrinsic clearance, human liver microsomes came to 35.8 mL/min/kg; the intrinsic clearance, rat liver microsomes was 17.8 mL/min/kg; the aqueous solubility was determined as 11.7 µg/mL (≈ 24.2 µM).
On to `COC(=O)[C@@H]1C[C@H](O)CN1CCc1ccccc1F`, for which the MDR1-MDCK efflux ratio came out at 0.726; the intrinsic clearance, rat liver microsomes came out at 3370 mL/min/kg; the aqueous solubility was found to be 56.8 µg/mL (≈ 212 µM).
Take `Cc1nc(NCc2ccc(F)c(Cl)c2)n(C)n1`: the MDR1-MDCK efflux ratio came out at 0.789; the intrinsic clearance, human liver microsomes amounted to 7.77 mL/min/kg; the intrinsic clearance, rat liver microsomes came out at 35.6 mL/min/kg; the aqueous solubility was 43.7 µg/mL (≈ 172 µM).
Regarding `CN(c1ccccc1)S(=O)(=O)c1csc(C(=O)Nc2ccc(C(=O)O)cc2)c1`, the aqueous solubility came out at 80.3 µg/mL (≈ 193 µM).
Consider `Cc1cc(OCc2ncc(C(C)(C)C)o2)nn1C`, for which the MDR1-MDCK efflux ratio came to 0.716; the intrinsic clearance, human liver microsomes turned out to be 27.8 mL/min/kg; the intrinsic clearance, rat liver microsomes amounted to 655 mL/min/kg; the aqueous solubility was determined as 18.5 µg/mL (≈ 74.2 µM).
For the molecule `O=C(Nc1cccnc1)c1ccnc(NC(=O)C2CC2)c1`, the MDR1-MDCK efflux ratio is 2.81; the fraction unbound, rat plasma was determined as 0.412; the intrinsic clearance, human liver microsomes was at most 4.74 mL/min/kg; the intrinsic clearance, rat liver microsomes was 27.3 mL/min/kg. The same molecule returned an aqueous solubility of 40.8 µg/mL (≈ 144 µM).
Turning to `CN(Cc1ccccc1)C(=O)c1ccc(-n2cccn2)nc1`, the MDR1-MDCK efflux ratio amounted to 0.566; the intrinsic clearance, human liver microsomes is at most 4.74 mL/min/kg; the intrinsic clearance, rat liver microsomes was 4990 mL/min/kg; the aqueous solubility came to 38.8 µg/mL (≈ 133 µM).
The corresponding values for `Cc1noc(C)c1CC(=O)N1CCc2[nH]c3ccc(Br)cc3c2C1` are 5.07, 166 mL/min/kg, 497 mL/min/kg and 1.29 µg/mL (≈ 3.32 µM).
With `COc1ccccc1CC(=O)Nc1ncc(C)s1`, the MDR1-MDCK efflux ratio was 0.674; the intrinsic clearance, human liver microsomes stood at 17.7 mL/min/kg; the intrinsic clearance, rat liver microsomes came out at 261 mL/min/kg; the aqueous solubility was determined as 6.6 µg/mL (≈ 25.2 µM).
The corresponding values for `O=C(NCC1CCC1)c1ccc(-n2ccnc2)nn1` are 0.616, 8.32 mL/min/kg, 50.3 mL/min/kg and 34.1 µg/mL (≈ 133 µM).
`CCn1cnnc1C1CCCN(c2ncnc3sc(-c4ccccc4)cc23)C1` (stereo not given) returned an aqueous solubility of 34.8 µg/mL (≈ 89 µM).
Turning to `CNC(=O)CN(C)c1cccc(F)c1C#N`, the MDR1-MDCK efflux ratio is 0.738; the intrinsic clearance, human liver microsomes was at most 4.74 mL/min/kg; the intrinsic clearance, rat liver microsomes was 15.2 mL/min/kg; the aqueous solubility stood at 34.1 µg/mL (≈ 154 µM).
As for `O=c1cc2c(n[nH]1)-c1cnc(N3CCCCC3)nc1CC2`, the MDR1-MDCK efflux ratio turned out to be 0.565; the intrinsic clearance, human liver microsomes was 4.86 mL/min/kg; the intrinsic clearance, rat liver microsomes was 110 mL/min/kg.
Molecule `Cc1cc(NC(=O)c2c(F)cccc2Cl)no1` displayed an intrinsic clearance, human liver microsomes of at most 4.74 mL/min/kg and an intrinsic clearance, rat liver microsomes of 26 mL/min/kg.
In the case of `Cc1cc(C(=O)Nc2c(C)nn(C(C)C)c2C)c2ccc(F)cc2n1`, the MDR1-MDCK efflux ratio came to 8.41; the intrinsic clearance, human liver microsomes came out at 6.78 mL/min/kg; the intrinsic clearance, rat liver microsomes came to 40.2 mL/min/kg; the aqueous solubility was 50.5 µg/mL (≈ 148 µM).
The corresponding values for `COc1ccc(N2N=C(C)/C(=C(\C)Nc3ccc(S(N)(=O)=O)cc3)C2=O)cc1` are 41.1, 8.92 mL/min/kg, 39.3 mL/min/kg and 20.9 µg/mL (≈ 52.1 µM).
In the case of `O=C(Cc1ccc2ccccc2c1)NCCc1nc2ccccc2[nH]1`, the MDR1-MDCK efflux ratio came out at 15.4; the intrinsic clearance, human liver microsomes was found to be 184 mL/min/kg; the intrinsic clearance, rat liver microsomes was 875 mL/min/kg; the aqueous solubility came to 29.1 µg/mL (≈ 88.5 µM).
For `CSC1(CNc2cc(C)nc(C)n2)CCOCC1`, the MDR1-MDCK efflux ratio stood at 1.42; the intrinsic clearance, human liver microsomes is at most 4.74 mL/min/kg; the intrinsic clearance, rat liver microsomes was 76.1 mL/min/kg.
For `CC(=O)NC1CCN(Cc2cccc(-c3cccnc3)c2)CC1`, the MDR1-MDCK efflux ratio worked out at 13.6; the intrinsic clearance, human liver microsomes came out at 6.04 mL/min/kg; the intrinsic clearance, rat liver microsomes turned out to be 42.3 mL/min/kg; the aqueous solubility stood at 25.8 µg/mL (≈ 83.4 µM).
The corresponding values for `CC(C)(C)c1ccc(C2=NC3(CCNCC3)NC2=O)cc1` are 33.8, 6.52 mL/min/kg, 59.6 mL/min/kg and 45 µg/mL (≈ 158 µM).
With `Cn1ccc2c(NC(=O)N3CCCN(C(=O)Oc4ccccc4)CC3)cccc21`, the intrinsic clearance, human liver microsomes is 41.8 mL/min/kg; the intrinsic clearance, rat liver microsomes amounted to 777 mL/min/kg; the aqueous solubility was determined as 71.9 µg/mL (≈ 183 µM).
`O=C(NCc1cccc(O)c1)Nc1nc(-c2ccncc2)cs1` gave an intrinsic clearance, human liver microsomes of 97.6 mL/min/kg and an intrinsic clearance, rat liver microsomes of 246 mL/min/kg.
